Results on one compound are retold here after patent US20060089340A1, “Novel steroids and steroid mimetics; method for their production; and use thereof” (priority 2003, published 2006).

`COc1ccc2c(c1)CC[C@@H]1[C@@H]2CC[C@]2(C)[C@@H](O)C[C@@H](O)[C@]12F` yielded a melting point of 188 to 191 °C.

As usually defined, the melting point is the temperature of the solid-liquid transition.
